Values quoted from earlier work in PubChem BioAssay AID1259409 (Chemical Carcinogenesis Research Information System (CCRIS), 2018).

System: rodent chemically induced tumor inhibition, incidence and multiplicity
Experiment: CCRIS tumor inhibitor studies
Settings: Promoter: NONE; for outcome: Carcinogen: OCHRATOXIN A (303-47-9), Strain/Sex: LEWIS/FEMALE

## O=S(=O)(O)CCS
Carcinogen: 17BETA-ESTRADIOL, 50-28-2, Dose [Inhibitor]: 0, 0.05% IN DRINKING WATER 5 D/WK BEGINNING 5 D POST CARCINOGEN DOSE (STUDY DURATION: 7.5 MO), Route [Inhibitor]: ORAL, Species: HAMSTER, Strain/Sex: SYRIAN/MALE, Target Tissue: Type of Lesion: KIDNEY: TUMOR, Dose [Carcinogen]: 25 MG PELLET REPLACED WITH A SECOND PELLET AFTER 4 MO
  tumour outcome (control, treated, inhibition, significance): 13/13 (100%), 15/19 (79%), 21%, not calculated
Carcinogen: CYCLOPHOSPHAMIDE, 50-18-0, Dose [Inhibitor]: 5 MG/KG BW IN DRINKING WATER 5/WK FOR 20 MO SIMULTANEOUSLY WITH CARCINOGEN TREATMENT (STUDY DURATION: 20 MO), Route [Inhibitor]: ORAL, Species: RAT, Strain/Sex: SPRAGUE-DAWLEY/MALE, Target Tissue: Type of Lesion: NERVOUS TISSUE: NEOPLASM, Dose [Carcinogen]: 2.5 MG/KG BW IN DRINKING WATER 5/WK FOR 20
  tumour outcome (control, treated, inhibition, significance): 14%, 19%, -36%, not calculated
Carcinogen: CYCLOPHOSPHAMIDE, 50-18-0, Dose [Inhibitor]: 5 MG/KG BW IN DRINKING WATER 5/WK FOR 20 MO SIMULTANEOUSLY WITH CARCINOGEN TREATMENT (STUDY DURATION: 20 MO), Route [Inhibitor]: ORAL, Species: RAT, Strain/Sex: SPRAGUE-DAWLEY/MALE, Target Tissue: Type of Lesion: URINARY BLADDER: TUMOR, Dose [Carcinogen]: 2.5 MG/KG BW IN DRINKING WATER 5/WK FOR 20 MO
  tumour outcome (control, treated, inhibition, significance): 30%, 22%, 27%, p>0.003*
Carcinogen: CYCLOPHOSPHAMIDE, 50-18-0, Dose [Inhibitor]: 5 MG/KG BW IN DRINKING WATER 5/WK FOR DURATION OF STUDY SIMULTANEOUSLY WITH CARCINOGEN TREATMENT (STUDY DURATION: LIFE), Route [Inhibitor]: ORAL, Species: RAT, Strain/Sex: SPRAGUE-DAWLEY/MALE, Target Tissue: Type of Lesion: URINARY BLADDER: PAPILLOMA, CARCINOMA, Dose [Carcinogen]: 2.5 MG/KG BW IN DRINKING WATER 5/WK FOR DURATION OF STUDY
  tumour outcome (control, treated, inhibition, significance): 32/100 (32%), 12/50 (24%), 25%, not calculated
Carcinogen: CYCLOPHOSPHAMIDE, 50-18-0, Dose [Inhibitor]: 15 MG/KG BW IN DRINKING WATER 5/WK FOR 20 MO SIMULTANEOUSLY WITH CARCINOGEN TREATMENT (STUDY DURATION: 20 MO), Route [Inhibitor]: ORAL, Species: RAT, Strain/Sex: SPRAGUE-DAWLEY/MALE, Target Tissue: Type of Lesion: NERVOUS TISSUE: NEOPLASM, Dose [Carcinogen]: 2.5 MG/KG BW IN DRINKING WATER 5/WK FOR 20 MO
  tumour outcome (control, treated, inhibition, significance): 14%, 24%, -71%, not calculated
Carcinogen: CYCLOPHOSPHAMIDE, 50-18-0, Dose [Inhibitor]: 15 MG/KG BW IN DRINKING WATER 5/WK FOR 20 MO SIMULTANEOUSLY WITH CARCINOGEN TREATMENT (STUDY DURATION: 20 MO), Route [Inhibitor]: ORAL, Species: RAT, Strain/Sex: SPRAGUE-DAWLEY/MALE, Target Tissue: Type of Lesion: URINARY BLADDER: TUMOR, Dose [Carcinogen]: 2.5 MG/KG BW IN DRINKING WATER 5/WK FOR 20 MO
  tumour outcome (control, treated, inhibition, significance): 30%, 7%, 77%, p>0.003*
Carcinogen: CYCLOPHOSPHAMIDE, 50-18-0, Dose [Inhibitor]: 15 MG/KG BW IN DRINKING WATER 5/WK FOR DURATION OF STUDY SIMULTANEOUSLY WITH CARCINOGEN TREATMENT (STUDY DURATION: LIFE), Route [Inhibitor]: ORAL, Species: RAT, Strain/Sex: SPRAGUE-DAWLEY/MALE, Target Tissue: Type of Lesion: URINARY BLADDER: PAPILLOMA, CARCINOMA, Dose [Carcinogen]: 2.5 MG/KG BW IN DRINKING WATER 5/WK FOR DURATION OF STUDY
  tumour outcome (control, treated, inhibition, significance): 32/100 (32%), 1/50 (2%), 94%, not calculated
Carcinogen: N-BUTYL-N(4-HYDROXYBUTYL)NITROSAMINE (3817-11-6), Dose [Inhibitor]: 0.05% IN DRINKING WATER FOR 15 WK (STUDY DURATION: 15 WK), Route [Inhibitor]: ORAL, Species: RAT, Strain/Sex: WISTAR/MALE, Target Tissue: Type of Lesion: URINARY BLADDER: PAPILLOMA, Dose [Carcinogen]: 0.025% IN DRINKING WATER FOR 15 WK
  tumour outcome (control, treated, inhibition, significance): 38/40 (95%), 18/30 (60%), 37%, p< 0.01
Carcinogen: N-BUTYL-N(4-HYDROXYBUTYL)NITROSAMINE (3817-11-6), Dose [Inhibitor]: 0.05% IN DRINKING WATER FOR 15 WK (STUDY DURATION: 15 WK), Route [Inhibitor]: ORAL, Species: RAT, Strain/Sex: WISTAR/MALE, Target Tissue: Type of Lesion: URINARY BLADDER: TRANSITIONAL CELL CARCINOMA, Dose [Carcinogen]: 0.025% IN DRINKING WATER FOR 15 WK
  tumour outcome (control, treated, inhibition, significance): 4/40 (10%), 1/30 (3%), 70%, not significant
Carcinogen: N-BUTYL-N-(4-HYDROXYBUTYL)NITROSAMINE, 3817-11-6, Dose [Inhibitor]: 350 MG/KG IN DRINKING WATER 5/WK FOR 39 WK SIMULTANEOUSLY WITH CARCINOGEN TREATMENT FOLLOWED BY OBSERVATION FOR LIFE (ST, Route [Inhibitor]: ORAL, Species: RAT, Strain/Sex: SPRAGUE-DAWLEY/MALE, Target Tissue: Type of Lesion: URINARY BLADDER: PAPILLOMATOUS CARCINOMA, TRANSITIONAL CELL CARCINOMA, Dose [Carcinogen]: 70 MG/KG 2/WK FOR 39 WK SIMULTANEOUSLY WITH AGENT TREATMENT
  tumour outcome (control, treated, inhibition, significance): 96%, 91%, 5%, not significant
Dose [Inhibitor]: 1 G/L IN DRINKING WATER FOR LIFETIME (STUDY DURATION: LIFETIME), Route [Inhibitor]: GAVAGE, Species: RAT, Target Tissue: Type of Lesion: URINARY BLADDER: TRANSITIONAL CELL CARCINOMA, Dose [Carcinogen]: 0.4 MG/KG BW 3X/WK FOR LIFETIME
  outcome: 0/20 (0%), 0/20 (0%), 0%, not significant
Dose [Inhibitor]: 1 G/L IN DRINKING WATER FOR LIFETIME (STUDY DURATION: LIFETIME), Route [Inhibitor]: GAVAGE, Species: RAT, Target Tissue: Type of Lesion: URINARY BLADDER: TRANSITIONAL CELL PAPILLOMA, Dose [Carcinogen]: 0.4 MG/KG BW 3X/WK FOR LIFETIME
  outcome: 0/20 (0%), 0/20 (0%), 0%, not significant
Carcinogen: OCHRATOXIN A, 303-47-9, Dose [Inhibitor]: 1 G/L IN DRINKING WATER FOR LIFETIME (STUDY DURATION: LIFETIME), Route [Inhibitor]: GAVAGE, Species: RAT, Strain/Sex: DA/FEMALE, Target Tissue: Type of Lesion: URINARY BLADDER: TRANSITIONAL CELL PAPILLOMA, Dose [Carcinogen]: 0.4 MG/KG BW 3X/WK FOR LIFETIME
  tumour outcome (control, treated, inhibition, significance): 2/40 (6%), 0/40 (0%), 100%, not significant
Carcinogen: OCHRATOXIN A, 303-47-9, Dose [Inhibitor]: 1 G/L IN DRINKING WATER FOR LIFETIME (STUDY DURATION: LIFETIME), Route [Inhibitor]: GAVAGE, Species: RAT, Strain/Sex: DA/MALE, Target Tissue: Type of Lesion: URINARY BLADDER: TRANSITIONAL CELL CARCINOMA, Dose [Carcinogen]: 0.4 MG/KG BW 3X/WK FOR LIFETIME
  tumour outcome (control, treated, inhibition, significance): 2/20 (11%), 0/20 (0%), 100%, not significant
